Laboratory results taken from ChEMBL document CHEMBL4699602, “Stapled and Xenopus Glucagon-Like Peptide 1 (GLP-1)-Based Dual GLP-1/Gastrin Receptor Agonists with Improved Metabolic Benefits in Rodent Models of Obesity and Diabetes” (J Med Chem, 2020).
Active and inactive are the calls of the source. The rule behind the calls is not given here. *1 amine or outer side, *2 acyl side, *3 side chain or, on linkers, in order; H or OH if unused. Bridges are numbered along the chain shown (N, C = ends). [ ]: non-standard residue; d: D form. X1 = CCCCCCCCCCCCCCCC(=O)NCCCCCCNC(=O)C(CCCCNC(=O)CCN1C(=O)CC([*:1])C1=O)NC(=O)CCN1C(=O)CC([*:2])C1=O; AEEA = NCCOCCOCC(=O)O; Aib = CC(C)(N)C(=O)O

Columns and labels:
[1] = Toxicity in Sprague-Dawley rat assessed as induction of kaolin intake at 25 nmol/kg, ip after 24 hrs by Kaolin consumption test; format: organism-based; settings: in vivo
[2] = Toxicity in Sprague-Dawley rat assessed as induction of kaolin intake at 25 nmol/kg, sc BID for 10 days by Kaolin consumption test; format: organism-based; settings: in vivo, 240 h, time 10 day
Rattus norvegicus [3] = assay: Reduction of food intake in Sprague-Dawley rat at 25 nmol/kg, ip after 24 hrs; format: functional, organism-based
[4] = Hepatotoxicity in ICR mouse assessed as effect on alanine aminotransferase level at 1000 nmol/kg, sc BID for 14 days; format: toxicity, organism-based; settings: in vivo, 336 h, time 14 day
Mus musculus [5] = assay: Inhibition of liquid-phase gastric emptying in 6 hrs fasted ICR mouse assessed as reduction in blood acetaminophen concentration at 25 nmol/kg, ip dosed 30 mins before acetaminophen dosing by LC-MS/MS analysis; format: functional, organism-based
Mus musculus [6] = assay: Reduction in Hb1Ac level in db/db mouse at 25 nmol/kg, sc BID for 6 weeks followed by another 6 week saline treatment relative to control; format: functional, organism-based
Mus musculus [7] = assay: Improvement in glucose tolerance in C57BL/6 mouse model of high-fat diet induced obesity at 25 nmol/kg, sc BID for 21 days relative to control; format: functional, organism-based; settings: time 21.0 day
[8] = Renal toxicity in ICR mouse assessed as effect on blood urea nitrogen level at 1000 nmol/kg, sc BID for 14 days; format: organism-based; settings: in vivo, 336 h, time 14 day
[9] = target: Glucagon-like peptide 1 receptor (Homo sapiens, UniProt P43220); assay: Agonist activity at human GLP-1R expressed in HEK293 cells assessed as stimulation of cAMP accumulation incubated for 20 mins; format: functional, cell-based
Chain of Glucagon-like peptide 1 receptor (P43220 whole entry): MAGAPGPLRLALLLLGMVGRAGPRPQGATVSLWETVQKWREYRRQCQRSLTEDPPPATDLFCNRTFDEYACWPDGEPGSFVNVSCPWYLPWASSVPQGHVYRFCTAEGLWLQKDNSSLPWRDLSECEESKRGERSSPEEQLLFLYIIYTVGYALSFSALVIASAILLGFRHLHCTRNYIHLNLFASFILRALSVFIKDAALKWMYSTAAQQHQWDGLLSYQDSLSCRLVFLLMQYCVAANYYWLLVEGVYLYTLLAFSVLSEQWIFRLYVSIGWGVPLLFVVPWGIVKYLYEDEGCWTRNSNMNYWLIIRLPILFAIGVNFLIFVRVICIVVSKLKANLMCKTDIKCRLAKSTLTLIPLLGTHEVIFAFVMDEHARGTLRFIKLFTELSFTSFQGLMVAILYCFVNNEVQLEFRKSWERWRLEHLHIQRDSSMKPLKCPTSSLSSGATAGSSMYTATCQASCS

Mus musculus [10] = assay: Hypoglycemic activity in non-fasted db/db mouse assessed as improvement in glucose tolerance at dosed intraperitoneally 30 mins before test and measured up to 120 mins by OGTT method; format: functional, organism-based; settings: time 150.0 min
[11] = target: T1, Gastrin/cholecystokinin type B receptor (Homo sapiens, UniProt P32239); assay: Agonist activity at human CCK-2R expressed in HEK293 cells assessed as stimulation of ERK phosphorylation incubated for 5 mins; format: cell-based
T1 sequence (P32239 whole entry): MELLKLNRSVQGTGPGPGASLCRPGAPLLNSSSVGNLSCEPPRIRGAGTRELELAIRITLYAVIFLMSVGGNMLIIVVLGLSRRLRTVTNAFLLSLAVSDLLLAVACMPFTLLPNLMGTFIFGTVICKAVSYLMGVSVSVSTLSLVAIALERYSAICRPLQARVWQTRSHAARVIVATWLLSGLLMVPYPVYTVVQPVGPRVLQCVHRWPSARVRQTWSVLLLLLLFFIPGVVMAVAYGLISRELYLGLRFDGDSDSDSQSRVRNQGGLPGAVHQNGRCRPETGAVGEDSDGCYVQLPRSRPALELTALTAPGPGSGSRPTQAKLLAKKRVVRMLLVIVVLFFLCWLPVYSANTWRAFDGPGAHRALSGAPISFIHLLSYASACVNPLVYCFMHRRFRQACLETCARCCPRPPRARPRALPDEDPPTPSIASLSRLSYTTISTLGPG

Mus musculus [12] = assay: Improvement in fasted blood glucose level in db/db mouse at 25 nmol/kg, sc BID for 6 weeks followed by another 6 week saline treatment relative to control; format: functional, organism-based
INS1 [13] = assay: Protection against glucotoxicity in rat INS1 cells assessed as recovery of cell viability after 24 hrs in presence of glucotoxicity media by MTT assay; format: functional, cell-based
Mus musculus [14] = assay: Hypoglycemic activity in db/db mouse assessed as decrease in glucose excursion at 25 nmol/kg, ip dosed 30 mins before test and measured up to 120 mins by OGTT method; format: functional, organism-based; settings: time 150.0 min
Mus musculus [15] = assay: Improvement in pancreatic islet area and number level in db/db mouse at 25 nmol/kg, sc BID for 21 days relative to control; format: functional, organism-based; settings: time 21.0 day
Mus musculus [16] = assay: Insulinotropic activity in db/db mouse assessed as improvement in plasma insulin level at 25 nmol/kg, ip dosed 30 mins before test and measured up to 60 mins by OGTT method; format: functional, organism-based; settings: time 90.0 min
Mus musculus [17] = assay: Improvement in HbA1c level in db/db mouse at 25 nmol/kg, sc BID for 21 days relative to control; format: functional, organism-based; settings: time 21.0 day
[18] = AUC (0 to infinity) in ICR mouse at 50 nmol/kg, sc up to 24 hrs by LC-MS/MS analysis; format: ADME, organism-based; design: route subcutaneous, dose 50 nmol/kg, time <=24; settings: in vivo
Rattus norvegicus [19] = assay: Reduction of food intake in Sprague-Dawley rat at 25 nmol/kg, sc BID for 12 days; format: functional, organism-based; settings: time 12.0 day
Mus musculus [20] = assay: Improvement in fasted blood glucose level in db/db mouse at 25 nmol/kg, sc BID for 21 days relative to control; format: functional, organism-based; settings: time 21.0 day
Mus musculus [21] = assay: Improvement in glucose tolerance in db/db mouse at 25 nmol/kg, sc BID for 6 weeks followed by another 6 week saline treatment relative to control; format: functional, organism-based
[22] = Hepatotoxicity in ICR mouse assessed as effect on aspartate aminotransferase level at 1000 nmol/kg, sc BID for 14 days; format: toxicity, organism-based; settings: in vivo, 336 h, time 14 day
[23] = target: T2, Cholecystokinin receptor type A (Homo sapiens, UniProt P32238); assay: Agonist activity at human CCK-1R expressed in HEK293 cells assessed as stimulation of ERK phosphorylation incubated for 5 mins; format: cell-based
T2 sequence (P32238 whole entry): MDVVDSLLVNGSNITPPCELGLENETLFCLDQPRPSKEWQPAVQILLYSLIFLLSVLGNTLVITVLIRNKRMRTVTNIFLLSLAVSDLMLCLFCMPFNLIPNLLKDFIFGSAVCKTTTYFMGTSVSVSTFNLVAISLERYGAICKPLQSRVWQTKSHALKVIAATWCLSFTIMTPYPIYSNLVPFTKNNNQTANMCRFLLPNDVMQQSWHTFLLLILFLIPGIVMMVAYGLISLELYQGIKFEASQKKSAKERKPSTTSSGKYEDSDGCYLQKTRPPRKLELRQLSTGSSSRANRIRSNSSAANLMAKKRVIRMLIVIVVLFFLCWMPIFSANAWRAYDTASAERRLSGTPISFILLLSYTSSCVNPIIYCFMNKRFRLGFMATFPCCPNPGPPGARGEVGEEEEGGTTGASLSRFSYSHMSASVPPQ

Mus musculus [24] = assay: Reduction in body weight in C57BL/6 mouse model of high-fat diet induced obesity at 25 nmol/kg, sc BID for 21 days relative to control; format: functional; design: scale not given: the % may be the effect or the level left; settings: time 21 day
Mus musculus [25] = assay: Reduction in fasting blood glucose in C57BL/6 mouse model of high-fat diet induced obesity at 25 nmol/kg, sc BID for 21 days relative to control; format: functional, organism-based; settings: time 21.0 day
Mus musculus [26] = assay: Reduction in serum cholesterol in C57BL/6 mouse model of high-fat diet induced obesity at 25 nmol/kg, sc BID for 21 days relative to control; format: functional, organism-based; settings: time 21.0 day
Mus musculus [27] = assay: Improvement in insulin content in db/db mouse at 25 nmol/kg, sc BID for 21 days relative to control; format: functional, organism-based; settings: time 21.0 day
[28] = Tmax in ICR mouse at 50 nmol/kg, sc up to 24 hrs by LC-MS/MS analysis; format: ADME, organism-based; settings: in vivo
Mus musculus [29] = assay: Inhibition of pancreatic non-beta cell area (alpha-cell) level in db/db mouse at 25 nmol/kg, sc BID for 21 days relative to control; format: functional, organism-based; settings: time 21.0 day
[30] = Half life in ICR mouse at 50 nmol/kg, sc up to 24 hrs by LC-MS/MS analysis; format: ADME, organism-based; settings: in vivo
Mus musculus [31] = assay: Reduction in body fat content in C57BL/6 mouse model of high-fat diet induced obesity at 25 nmol/kg, sc BID for 21 days relative to control; format: functional; design: scale not given: the % may be the effect or the level left; settings: time 21 day
Mus musculus [32] = assay: Inhibition of solid-phase gastric emptying in fasted ICR mouse at 25 nmol/kg, ip measured after 4 hrs by LC-MS/MS analysis; format: functional, organism-based
INS1 [33] = assay: Toxicity in rat INS1 cells assessed as reduction cell viability up to 1000 nM after 24 hrs by MTT assay; format: cell-based; settings: ins1, 24 h
[34] = Renal toxicity in ICR mouse assessed as effect on serum creatinine level at 1000 nmol/kg, sc BID for 14 days; format: organism-based; settings: in vivo, 336 h, time 14 day
Mus musculus [35] = assay: Reduction in serum triglyceride in C57BL/6 mouse model of high-fat diet induced obesity at 25 nmol/kg, sc BID for 21 days relative to control; format: functional, organism-based; settings: time 21.0 day
Mus musculus [36] = assay: Reduction in cumulated food intake in db/db mouse at 25 nmol/kg, sc BID for 21 days relative to control; format: functional, organism-based; settings: time 21.0 day
Mus musculus [37] = assay: Reduction in body weight gain in db/db mouse at 25 nmol/kg, sc BID for 21 days relative to control; format: functional, organism-based; settings: time 21.0 day
Mus musculus [38] = assay: Hypoglycemic activity in db/db mouse assessed as improvement in glucose tolerance at 25 nmol/kg, ip dosed 30 mins before test and measured up to 120 mins by OGTT method; format: functional, organism-based; settings: time 150.0 min
Mus musculus [39] = assay: Improvement in pancreatic beta cell area level in db/db mouse at 25 nmol/kg, sc BID for 21 days relative to control; format: functional, organism-based; settings: time 21.0 day
Mus musculus [40] = assay: […] activity in non-fasted db/db mouse assessed as improvement in glucose tolerance at dosed intraperitoneally 30 mins before test and measured up to 120 mins by OGTT method; format: functional, organism-based; settings: time 150.0 min

For “H-H[Aib]EGTYTNDVTEYLEEEAAKCFIEWLICGKPSSGAPPPS[AEEA][AEEA]YGWLDF-NH2 (linker 21-28 via X1)”, which Activity [1] is on record?
Its Activity is “Non-Toxic”.

What about the Activity [2] of the same substance?
The Activity was “Non-Toxic”.

And the Activity (Rattus norvegicus [3])?
The Activity was “Active”.

And the Activity [4]?
Its Activity is “Non-Toxic”.

What about the inhibition (Mus musculus [5]) of the same substance?
The inhibition was “Active”.

And the Activity (Mus musculus [6])?
The Activity was “Active”.

What about the Activity (Mus musculus [7]) of the same substance?
Its Activity is “Active”.

And the Activity [8]?
The Activity was “Non-Toxic”.

What about the EC50 [9] of the same substance?
Its EC50 is 0.041 nM.

What about the Activity (Mus musculus [10]) of the same substance?
The Activity was “Dose-dependent effect”.

And the EC50 [11]?
The EC50 was 8.8 nM.

And the Activity (Mus musculus [12])?
Its Activity is “Active”.

What about the Activity (INS1 [13]) of the same substance?
Its Activity is “Dose-dependent effect”.

What about the Activity (Mus musculus [14]) of the same substance?
Its Activity is “Active”.

What about the Activity (Mus musculus [15]) of the same substance?
The Activity was “Active”.

What about the Activity (Mus musculus [16]) of the same substance?
Its Activity is “Active”.

What about the Activity (Mus musculus [17]) of the same substance?
Its Activity is “Active”.

And the AUC(0-inf) [18]?
Its AUC(0-inf) is 19600 ng·h/mL.

What about the Activity (Rattus norvegicus [19]) of the same substance?
The Activity was “Active”.

What about the Activity (Mus musculus [20]) of the same substance?
The Activity was “Active”.

And the Activity (Mus musculus [21])?
Its Activity is “Active”.

And the Activity [22]?
The Activity was “Non-Toxic”.

And the EC50 [23]?
The EC50 was > 1000 nM.

And the Activity (Mus musculus [24])?
The Activity was 24%.

And the Activity (Mus musculus [25])?
The Activity was “Active”.

What about the Activity (Mus musculus [26]) of the same substance?
Its Activity is “Active”.

And the Activity (Mus musculus [27])?
Its Activity is “Active”.

And the Tmax [28]?
Its Tmax is 4 h.

And the inhibition (Mus musculus [29])?
The inhibition was “Active”.

And the half-life [30]?
Its half-life is 4.7 h.

What about the Activity (Mus musculus [31]) of the same substance?
The Activity was 30.4%.

What about the inhibition (Mus musculus [32]) of the same substance?
Its inhibition is “Active”.

And the Activity (INS1 [33])?
The Activity was “Non-Toxic”.

What about the Activity [34] of the same substance?
Its Activity is “Non-Toxic”.

And the Activity (Mus musculus [35])?
The Activity was “Active”.

And the Activity (Mus musculus [36])?
Its Activity is “Active”.

What about the Activity (Mus musculus [37]) of the same substance?
Its Activity is “Active”.

And the Activity (Mus musculus [38])?
Its Activity is “Active”.

What about the Activity (Mus musculus [39]) of the same substance?
The Activity was “Active”.

And the Activity (Mus musculus [40])?
Its Activity is “Dose-dependent effect”.
